Columns and labels:
Format in all cases: cell-based
dKCNQ [1] = target: T1, dKCNQ (Drosophila melanogaster, UniProt Q5PXF9); assay: whole-cell patch clamp, HEK cells, current at +[…] mV
T1 construct: gene KCNQ; full-length cDNA RE26469 in pIRES2-EGFP, expressed in HEK cells; homotetramer
T1 sequence (Q5PXF9 1-808): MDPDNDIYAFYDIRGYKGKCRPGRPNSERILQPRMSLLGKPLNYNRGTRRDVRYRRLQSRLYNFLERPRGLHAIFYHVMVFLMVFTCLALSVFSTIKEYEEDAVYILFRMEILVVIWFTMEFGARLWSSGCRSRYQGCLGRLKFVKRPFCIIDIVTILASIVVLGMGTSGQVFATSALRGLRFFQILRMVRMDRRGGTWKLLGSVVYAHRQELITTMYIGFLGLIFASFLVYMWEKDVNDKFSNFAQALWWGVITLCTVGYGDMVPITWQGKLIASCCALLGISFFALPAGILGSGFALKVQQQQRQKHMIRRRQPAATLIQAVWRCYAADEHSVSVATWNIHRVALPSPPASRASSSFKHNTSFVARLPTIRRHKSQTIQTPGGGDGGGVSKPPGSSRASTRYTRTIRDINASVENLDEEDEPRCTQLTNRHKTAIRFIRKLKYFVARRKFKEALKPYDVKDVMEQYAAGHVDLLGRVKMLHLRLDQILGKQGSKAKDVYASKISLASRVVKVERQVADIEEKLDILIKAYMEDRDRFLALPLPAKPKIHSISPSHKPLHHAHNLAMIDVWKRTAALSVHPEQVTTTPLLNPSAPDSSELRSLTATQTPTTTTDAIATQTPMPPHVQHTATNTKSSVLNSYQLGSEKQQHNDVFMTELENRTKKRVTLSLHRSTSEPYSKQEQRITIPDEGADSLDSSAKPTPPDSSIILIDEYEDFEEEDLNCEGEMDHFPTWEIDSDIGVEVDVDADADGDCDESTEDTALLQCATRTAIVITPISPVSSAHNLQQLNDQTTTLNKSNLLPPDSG

KCNQ2/3 [2] = target: T2, KCNQ2/3 (Rattus norvegicus, UniProt O88943+O88944); assay: as above; conditions: HEK293
T2 construct: rat KCNQ2 and KCNQ3 cDNAs in pcDNA3.1 co-transfected 1:1 in HEK cells; heterotetramer

KCNQ1/KCNE1 = target: T3, KCNQ1/KCNE1 (Homo sapiens, UniProt P51787); assay: as above; conditions: HEK293
T3 construct: human KCNQ1 co-expressed with KCNE1 (cDNA 1:2) in HEK cells, pIRES1-CD8; with Potassium voltage-gated channel subfamily E member 1

dKCNQ [3] = target: T1, dKCNQ; assay: as above; conditions: HEK293
KCNQ2/3 [4] = target: T2, KCNQ2/3; assay: whole-cell patch clamp, HEK cells, current at −[…] mV; conditions: opener; at −30 mV; activation V0.5 shifted by −24 mV; pH 7.2; room temperature

T2 sequence (O88943 whole entry): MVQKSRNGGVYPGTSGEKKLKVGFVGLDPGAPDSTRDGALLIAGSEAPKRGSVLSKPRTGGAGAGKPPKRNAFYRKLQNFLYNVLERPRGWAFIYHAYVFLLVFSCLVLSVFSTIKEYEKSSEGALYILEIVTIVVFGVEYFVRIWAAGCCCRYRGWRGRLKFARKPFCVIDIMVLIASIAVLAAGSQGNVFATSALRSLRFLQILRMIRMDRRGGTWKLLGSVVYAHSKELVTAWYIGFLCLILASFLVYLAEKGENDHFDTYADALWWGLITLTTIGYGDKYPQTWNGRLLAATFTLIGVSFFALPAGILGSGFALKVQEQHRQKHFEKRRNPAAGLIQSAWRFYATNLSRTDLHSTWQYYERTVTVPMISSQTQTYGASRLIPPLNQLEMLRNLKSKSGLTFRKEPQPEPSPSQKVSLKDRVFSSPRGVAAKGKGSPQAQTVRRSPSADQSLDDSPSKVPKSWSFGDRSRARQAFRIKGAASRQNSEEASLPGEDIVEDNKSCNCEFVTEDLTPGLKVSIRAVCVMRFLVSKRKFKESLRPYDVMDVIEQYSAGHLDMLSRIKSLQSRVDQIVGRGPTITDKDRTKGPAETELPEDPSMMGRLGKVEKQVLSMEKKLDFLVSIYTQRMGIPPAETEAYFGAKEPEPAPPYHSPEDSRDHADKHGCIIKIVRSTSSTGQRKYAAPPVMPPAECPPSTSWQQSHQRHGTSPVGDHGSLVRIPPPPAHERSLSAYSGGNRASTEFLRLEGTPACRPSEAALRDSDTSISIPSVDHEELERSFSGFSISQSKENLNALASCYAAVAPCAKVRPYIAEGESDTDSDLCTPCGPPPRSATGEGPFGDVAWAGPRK
T2 sequence (O88944 whole entry): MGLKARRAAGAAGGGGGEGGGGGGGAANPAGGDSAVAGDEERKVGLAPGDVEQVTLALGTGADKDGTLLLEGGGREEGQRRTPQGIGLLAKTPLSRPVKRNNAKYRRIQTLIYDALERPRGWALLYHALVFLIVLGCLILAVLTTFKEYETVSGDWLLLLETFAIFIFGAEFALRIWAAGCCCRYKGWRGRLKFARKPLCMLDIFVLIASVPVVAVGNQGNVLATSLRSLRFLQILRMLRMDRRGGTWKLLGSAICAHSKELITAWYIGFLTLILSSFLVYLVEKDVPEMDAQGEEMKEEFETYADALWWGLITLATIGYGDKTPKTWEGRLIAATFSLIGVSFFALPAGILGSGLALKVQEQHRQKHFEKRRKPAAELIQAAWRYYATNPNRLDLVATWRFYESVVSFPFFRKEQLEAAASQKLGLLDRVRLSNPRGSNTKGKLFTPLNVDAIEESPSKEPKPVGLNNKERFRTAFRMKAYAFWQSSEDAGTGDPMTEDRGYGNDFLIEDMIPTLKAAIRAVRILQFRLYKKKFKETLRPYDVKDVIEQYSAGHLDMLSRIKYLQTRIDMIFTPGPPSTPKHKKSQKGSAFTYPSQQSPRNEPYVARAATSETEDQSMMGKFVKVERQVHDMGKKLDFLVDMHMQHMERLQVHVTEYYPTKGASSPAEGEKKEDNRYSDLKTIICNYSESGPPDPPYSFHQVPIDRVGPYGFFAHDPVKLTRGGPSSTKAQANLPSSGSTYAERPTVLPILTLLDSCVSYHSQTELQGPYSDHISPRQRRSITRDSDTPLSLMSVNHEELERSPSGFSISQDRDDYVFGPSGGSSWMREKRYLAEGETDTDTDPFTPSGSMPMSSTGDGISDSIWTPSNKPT
T3 sequence (P51787 whole entry): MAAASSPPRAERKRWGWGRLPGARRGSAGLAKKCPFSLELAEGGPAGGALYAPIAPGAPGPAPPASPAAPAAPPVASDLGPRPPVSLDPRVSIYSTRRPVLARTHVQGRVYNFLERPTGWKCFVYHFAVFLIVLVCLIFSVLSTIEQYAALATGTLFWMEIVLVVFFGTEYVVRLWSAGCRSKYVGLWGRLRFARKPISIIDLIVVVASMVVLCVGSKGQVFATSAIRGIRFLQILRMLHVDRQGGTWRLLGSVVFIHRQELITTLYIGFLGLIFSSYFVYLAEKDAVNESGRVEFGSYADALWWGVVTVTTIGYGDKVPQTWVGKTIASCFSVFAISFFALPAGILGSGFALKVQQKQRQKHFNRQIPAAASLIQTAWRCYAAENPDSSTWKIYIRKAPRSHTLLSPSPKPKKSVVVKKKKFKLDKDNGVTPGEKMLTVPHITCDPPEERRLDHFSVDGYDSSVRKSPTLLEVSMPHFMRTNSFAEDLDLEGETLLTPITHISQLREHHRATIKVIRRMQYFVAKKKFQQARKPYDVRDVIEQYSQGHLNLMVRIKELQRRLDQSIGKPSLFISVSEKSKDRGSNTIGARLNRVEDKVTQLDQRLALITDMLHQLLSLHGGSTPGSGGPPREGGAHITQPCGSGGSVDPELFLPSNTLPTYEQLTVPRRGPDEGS

O=C1c2ccccc2C(Cc2ccncc2)(Cc2ccncc2)c2ccccc21 [XE991, 10,10-bis(4-Pyridinylmethyl)-9(10H)-anthracenone]
IC50 (dKCNQ [1]): 5.5 ± 1.1 µM | inhibition at 10 µM (KCNQ2/3 [2]): ~50%

CCS(=O)(=O)N(C)C1c2cc(C#N)ccc2OC(C)(C)C1O (stereo not shown) [chromanol 293B]
IC50 (dKCNQ [1]): 13 ± 3.6 µM | inhibition at 10 µM (KCNQ1/KCNE1): ~56%

O=C1N(c2ccccc2)c2ccccc2C1(Cc1ccncc1)Cc1ccncc1 [linopirdine]
inhibition at 10 µM (KCNQ2/3 [2]): ~40% | inhibition at 10 µM (dKCNQ [3]): ~30%

CCOC(=O)Nc1ccc(NCc2ccc(F)cc2)cc1N [retigabine]
% current enhancement at 10 μM (KCNQ2/3 [4]): ~ 35%

Source: paper PMC3168433, “Drosophila KCNQ Channel Displays Evolutionarily Conserved Electrophysiology and Pharmacology with Mammalian KCNQ Channels” (PLoS ONE, 2011)
